# Where “and” joins values, the source holds several entries; their conditions need not be identical. Equal entries are not always repeated.
# Assays:
# [1] = parameters: method as in PMID 31892167; settings: rats administered pomegranate juice; cited from earlier work
# human recombinant MAO-A = target: T1, human recombinant MAO-A (Homo sapiens, UniProt P21397); experiment: MAO-Glo MAO-A inhibition assay; type: biochemical; settings: for IC50: 0–50 μM range, 160 µM substrate, 37 °C, 1 h, read-out: IC50 for MAO-A inhibitory activity; for MAO-A enzyme assay, Percent of control: N=1-3; for inhibition of MAO-A enzyme activity: compared to vehicle
# T1 construct: purchased Sigma-Aldrich
# T1 sequence (P21397 1-527): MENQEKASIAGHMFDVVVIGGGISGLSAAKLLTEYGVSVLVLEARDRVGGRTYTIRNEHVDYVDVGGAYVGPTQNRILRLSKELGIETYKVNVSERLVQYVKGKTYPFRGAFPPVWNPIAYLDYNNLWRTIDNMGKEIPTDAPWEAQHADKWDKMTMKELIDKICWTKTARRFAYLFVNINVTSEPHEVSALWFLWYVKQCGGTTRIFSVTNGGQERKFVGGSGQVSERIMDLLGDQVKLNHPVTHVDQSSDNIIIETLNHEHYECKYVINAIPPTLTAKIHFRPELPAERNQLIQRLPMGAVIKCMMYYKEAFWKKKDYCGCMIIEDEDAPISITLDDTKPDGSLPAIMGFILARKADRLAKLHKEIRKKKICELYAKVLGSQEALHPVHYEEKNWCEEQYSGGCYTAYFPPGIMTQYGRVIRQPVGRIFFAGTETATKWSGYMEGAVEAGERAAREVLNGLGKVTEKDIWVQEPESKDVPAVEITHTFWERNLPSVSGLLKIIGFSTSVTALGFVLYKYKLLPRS
# Protocol: MAO inhibition assays were performed using a MAO-Glo™ Assay kit (Promega) according to the manufacturer’s instructions. Briefly, 1 µg of human recombinant MAO-A and MAO-B enzyme isoforms were incubated with 160 and 16 µM of MAO substrates, respectively. […] The enzyme reaction was quenched by the addition of a luciferin detection reagent. […] An equal volume of dimethyl sulfoxide (0.1%) was added to the enzyme assay as a control. After 1 h of incubation, the luminescence was measured with a multimode microplate reader (Synergy HT, BioTek, Winooski, VT, USA) to determine the MAO enzyme activities. Initially, the inhibition potential of all the test compounds was evaluated at a concentration of 100 μM. The control reaction (with no inhibitor) with vehicle (DMSO 0.1%) was set at 100% activity. To determine IC50 of the test compounds, the dose dependent enzyme assays were performed. We used range of 0.1 to 50 μM concentrations for MAO-A and 0.1 to 200 μM concentrations of test compounds for the MAO-B enzyme activities. The type of enzyme inhibition was determined using variable concentrations of MAO-A substrate (10–360 µM) and MAO-B substrate (2–64 µM) for the respective enzyme assay. […] A Lineweaver–Burk double reciprocal plot was generated, and the mode of inhibition was determined by visual examination of the plot. The slope of the reciprocal plots was plotted against the inhibitor concentrations and determined the x-axis intercept that represented the inhibitor constant, Ki value.
compound,measurement,setting,value
"O=c1oc2cc(O)ccc2c2ccc(O)cc12 [UA, urolithin-A]",detection in the brain,[1],detected in the brains
same,IC50,human recombinant MAO-A,5.88 ± 0.69 µM
same,"MAO-A enzyme assay, Percent of control","human recombinant MAO-A; 0.1 µM, listed as UroA",103.587% of control and 97.8592% of control and 101.542% of control
same,"MAO-A enzyme assay, Percent of control","human recombinant MAO-A; 0.5 µM, listed as UroA",95.9845% of control and 94.0414% of control and 95.8492% of control
same,"MAO-A enzyme assay, Percent of control","human recombinant MAO-A; 1 µM, listed as UroA",62.4789% of control and 79.8224% of control and 85.3157% of control
same,"MAO-A enzyme assay, Percent of control","human recombinant MAO-A; 5 µM, listed as UroA",59.251% of control and 60.0082% of control and 51.3175% of control
same,"MAO-A enzyme assay, Percent of control","human recombinant MAO-A; 10 µM, listed as UroA",48.1185% of control and 46.1024% of control and 43.7898% of control
same,"MAO-A enzyme assay, Percent of control","human recombinant MAO-A; 25 µM, listed as UroA",24.6659% of control and 27.2749% of control and 27.3403% of control
same,"MAO-A enzyme assay, Percent of control","human recombinant MAO-A; 50 µM, listed as UroA",13.9758% of control and 16.0253% of control and 16.3887% of control
same,"MAO-A enzyme assay, Percent of control","human recombinant MAO-A; 100 µM (Figure 1A), listed as UroA, 100 µM",13.2811% of control and 14.5442% of control and 14.4558% of control
same,inhibition of MAO-A enzyme activity,human recombinant MAO-A; 100 µM,86%
"O=c1oc2cc(O)ccc2c2ccccc12 [UB, urolithin-B]",IC50,human recombinant MAO-A,0.88 µM
same,"MAO-A enzyme assay, Percent of control","human recombinant MAO-A; 0.1 µM, listed as UroB",101.662% of control and 98.0675% of control and 93.5275% of control
same,"MAO-A enzyme assay, Percent of control","human recombinant MAO-A; 0.5 µM, listed as UroB",64.4524% of control and 74.8902% of control and 80.9217% of control
same,"MAO-A enzyme assay, Percent of control","human recombinant MAO-A; 1 µM, listed as UroB",51.8207% of control and 51.0498% of control and 41.9972% of control
same,"MAO-A enzyme assay, Percent of control","human recombinant MAO-A; 5 µM, listed as UroB",37.9544% of control and 37.4055% of control and 33.2487% of control
same,"MAO-A enzyme assay, Percent of control","human recombinant MAO-A; 10 µM, listed as UroB",21.8683% of control and 19.2684% of control and 22.2499% of control
same,"MAO-A enzyme assay, Percent of control","human recombinant MAO-A; 25 µM, listed as UroB",10.1321% of control and 11.7696% of control and 12.9039% of control
same,"MAO-A enzyme assay, Percent of control","human recombinant MAO-A; 50 µM, listed as UroB",6.787% of control and 6.156% of control and 5.227% of control
same,"MAO-A enzyme assay, Percent of control","human recombinant MAO-A; 100 µM (Figure 1A), listed as UroB, 100 µM",5.573% of control and 6.858% of control and 6.006% of control
same,inhibition of MAO-A enzyme activity,human recombinant MAO-A; 100 µM,94%
"O=c1oc2cc(O)ccc2c2cc(O)c(O)cc12 [UC, urolithin-C]",IC50,human recombinant MAO-A,29.6 ± 1.8 µM
same,"MAO-A enzyme assay, Percent of control","human recombinant MAO-A; 0.1 µM, listed as UroC",81.5785% of control and 83.2586% of control and 93.5154% of control
same,"MAO-A enzyme assay, Percent of control","human recombinant MAO-A; 0.5 µM, listed as UroC",88.4995% of control and 88.7443% of control and 76.6736% of control
same,"MAO-A enzyme assay, Percent of control","human recombinant MAO-A; 1 µM, listed as UroC",95.9222% of control and 92.2777% of control and 91.5145% of control
same,"MAO-A enzyme assay, Percent of control","human recombinant MAO-A; 5 µM, listed as UroC",81.1285% of control and 71.4874% of control and 89.8253% of control
same,"MAO-A enzyme assay, Percent of control","human recombinant MAO-A; 10 µM, listed as UroC",68.5636% of control and 69.9396% of control and 63.7804% of control
same,"MAO-A enzyme assay, Percent of control","human recombinant MAO-A; 25 µM, listed as UroC",64.6896% of control and 58.5532% of control and 52.6539% of control
same,"MAO-A enzyme assay, Percent of control","human recombinant MAO-A; 50 µM, listed as UroC",46.6421% of control and 44.3022% of control and 44.6686% of control
same,"MAO-A enzyme assay, Percent of control","human recombinant MAO-A; 100 µM (Figure 1A), listed as UroC, 100 µM",11.345% of control and 12.577% of control and 11.352% of control
same,inhibition of MAO-A enzyme activity,human recombinant MAO-A; 100 µM,88%

# From article PMC7345905, “Microbial Metabolite Urolithin B Inhibits Recombinant Human Monoamine Oxidase A Enzyme” (Metabolites, 2020)
